# System: iPSC-derived cortical neurons
# Assay type: cell-based
# Settings: responders vs non-responders, 10 μM Bupropion
structure (smiles),measurement,setting,value
"CC(NC(C)(C)C)C(=O)c1cccc(Cl)c1 (stereo not drawn) [Bupropion, 3-Chloro-N-tert-butyl-β-keto-α-methylphenethylamin]",logFC LGI1 expression,p<0.01,0.9793
same,logFC LRRC8B expression,p<0.01,0.4223
same,logFC MCM4 expression,p<0.01,0.5295
same,logFC MCUR1 expression,p<0.01,0.2421
same,logFC MDN1 expression,p<0.01,0.4167
same,logFC MEIOC expression,p<0.01,0.7172
same,logFC MGA expression,p<0.01,0.3064
same,logFC MGME1 expression,p<0.01,0.4368
same,logFC MZT1 expression,p<0.01,0.4887
same,logFC NFKBID expression,p<0.01,0.4452
same,logFC NOS2 expression,p<0.01,1.462
same,logFC NPY2R expression,p<0.01,1.653
same,logFC OSBPL11 expression,p<0.01,0.3394
same,logFC PAWR expression,p<0.01,0.4771
same,logFC PCGF5 expression,p<0.01,0.6056
same,logFC PHF6 expression,p<0.01,0.4686
same,logFC POU5F1B expression,p<0.01,0.9729
same,logFC PPAT expression,p<0.01,0.4669
same,logFC PRKDC expression,p<0.01,0.3963
same,logFC PTPN13 expression,p<0.01,0.5645
same,logFC RNGTT expression,p<0.01,0.3114
same,logFC S100A13 expression,p<0.01,0.7404
same,logFC SELENOI expression,p<0.01,0.336
same,logFC SFRP4 expression,p<0.01,1.737
same,logFC SIGLEC10 expression,p<0.01,0.8067
same,logFC SIKE1 expression,p<0.01,0.3013
same,logFC SIM1 expression,p<0.01,2.052
same,logFC SLC7A11 expression,p<0.01,0.6075
same,logFC SLC25A13 expression,p<0.01,0.3285
same,logFC SLC25A17 expression,p<0.01,0.3611
same,logFC SMG1 expression,p<0.01,0.2796
same,logFC SNRNP48 expression,p<0.01,0.4371
same,logFC SPIN4 expression,p<0.01,0.4838
same,logFC STK38L expression,p<0.01,0.387
same,logFC SYCP2L expression,p<0.01,0.5973
same,logFC TFAM expression,p<0.01,0.4583
same,logFC TIGAR expression,p<0.01,0.4965
same,logFC TNFRSF13C expression,p<0.01,0.5218
same,logFC TSGA10IP expression,p<0.01,0.8595
same,logFC TXNRD1 expression,p<0.01,0.3112
same,logFC USP37 expression,p<0.01,0.2938
same,logFC WNT8B expression,p<0.01,1.79
same,logFC WNT10B expression,p<0.01,1.077
same,logFC WWP1 expression,p<0.01,0.3073
same,logFC ZBTB24 expression,p<0.01,0.4021
same,logFC ZC3H13 expression,p<0.01,0.2827
same,logFC ZNF347 expression,p<0.01,0.3648
same,logFC ZWILCH expression,p<0.01,0.4164
same,logFC ACKR1,PValue NS,−1.506
same,logFC ACVR2A,PValue NS,−0.6074
same,logFC ADGRA1,PValue NS,−1.373
same,logFC ADGRG1,PValue NS,−0.7037
same,logFC AFAP1,PValue NS,−0.7585
same,logFC ANKRD34A,PValue NS,−1.243
same,logFC APBA1,PValue NS,−1.797
same,logFC APC2,PValue NS,−1.57
same,logFC APOL6,PValue NS,−1.252
same,logFC ARHGAP22,PValue NS,−2.023
same,logFC ASIC2,PValue NS,−1.907
same,logFC ATL1,PValue NS,−1.284
same,logFC ATP8A1,PValue NS,−1.064
same,logFC BCL11A,PValue NS,−1.755
same,logFC BTBD8,PValue NS,−0.8605
same,logFC C1QL1,PValue NS,−1.952
same,logFC C11orf87,PValue NS,−2.65
same,logFC C11orf95,PValue NS,−0.652
same,logFC C14orf132,PValue NS,−1.198
same,logFC CACNA1E,PValue NS,−1.888
same,logFC CALY,PValue NS,−1.348
same,logFC CARMIL3,PValue NS,−1.181
same,logFC CBFA2T3,PValue NS,−1.14
same,logFC CDKN2D,PValue NS,−1.375
same,logFC CEND1,PValue NS,−1.295
same,logFC CHD5,PValue NS,−1.435
same,logFC CHRNB4,PValue NS,−1.488
same,logFC CHRNG,PValue NS,−1.545
same,logFC CNR1,PValue NS,−1.187
same,logFC CNTN2,PValue NS,−2.494
same,logFC CRYGD,PValue NS,−3.453
same,logFC CTIF,PValue NS,−0.9638
same,logFC DACT3,PValue NS,−0.903
same,logFC DCLK1,PValue NS,−1.159
same,logFC DISP3,PValue NS,−1.132
same,logFC DLGAP3,PValue NS,−1.159
same,logFC DLL4,PValue NS,−2.038
same,logFC DNAJC6,PValue NS,−1.057
same,logFC DNAJC12,PValue NS,−0.9874
same,logFC DNM3,PValue NS,−1.295
same,logFC DOC2B,PValue NS,−2.034
same,logFC DOK4,PValue NS,−0.8299
same,logFC DPF3,PValue NS,−1.335
same,logFC DPP6,PValue NS,−1.175
same,logFC DUSP8,PValue NS,−1.12
same,logFC DUSP26,PValue NS,−1.67
same,logFC ELAVL2,PValue NS,−0.9184
same,logFC ELAVL3,PValue NS,−1.463
same,logFC ELMOD1,PValue NS,−1.395
same,logFC EPHB2,PValue NS,−1.009
same,logFC ERC2,PValue NS,−0.9757
same,logFC ESRRB,PValue NS,−1.635
same,logFC ESRRG,PValue NS,−1.003
same,logFC FAM78B,PValue NS,−1.309
same,logFC FAM131C,PValue NS,−1.177
same,logFC FAM155A,PValue NS,−0.6581
same,logFC FBLL1,PValue NS,−1.499
same,logFC FBXL16,PValue NS,−0.9816
same,logFC FLRT2,PValue NS,−0.9821
same,logFC FRRS1L,PValue NS,−1.313
same,logFC GALNT15,PValue NS,−1.592
same,logFC GDAP1L1,PValue NS,−1.2
same,logFC GDI1,PValue NS,−0.5928
same,logFC GNAT3,PValue NS,−1.874
same,logFC GNAZ,PValue NS,−0.8379
same,logFC GNG2,PValue NS,−1.148
same,logFC GPR12,PValue NS,−2.094
same,logFC GPR83,PValue NS,−1.576
same,logFC GPRASP1,PValue NS,−0.7562
same,logFC GPRIN3,PValue NS,−1.516
same,logFC GRIN2B,PValue NS,−2.921
same,logFC GRIN3A,PValue NS,−2.57
same,logFC GRM6,PValue NS,−1.37
same,logFC GRM7,PValue NS,−1.699
same,logFC GSE1,PValue NS,−0.6973
same,logFC GSTM3,PValue NS,−1.177
same,logFC HIVEP3,PValue NS,−1.261
same,logFC HPCAL4,PValue NS,−1.489
same,logFC INSYN1,PValue NS,−1.208
same,logFC INSYN2A,PValue NS,−1.914
same,logFC IQSEC3,PValue NS,−1.513
same,logFC JAKMIP3,PValue NS,−0.927
same,logFC KIDINS220,PValue NS,−0.8542
same,logFC KIF1A,PValue NS,−1.165
same,logFC KIF21B,PValue NS,−1.336
same,logFC KLF7,PValue NS,−0.8775
same,logFC L1CAM,PValue NS,−1.21
same,logFC LANCL2,PValue NS,−0.7582
same,logFC LBH,PValue NS,−0.8003
same,logFC MACO1,PValue NS,−0.6324
same,logFC MADD,PValue NS,−0.7392
same,logFC MAGEE1,PValue NS,−0.8404
same,logFC MANEAL,PValue NS,−1.302
same,logFC MAOA,PValue NS,−1.531
same,logFC MAP3K10,PValue NS,−0.7965
same,logFC MAPK8IP1,PValue NS,−1.32
same,logFC MAPT,PValue NS,−1.894
same,logFC MCF2L,PValue NS,−1.13
same,logFC MDGA1,PValue NS,−1.126
same,logFC MLLT11,PValue NS,−1.039
same,logFC MSANTD1,PValue NS,−1.341
same,logFC MTMR4,PValue NS,−0.6785
same,logFC MVB12B,PValue NS,−1.106
same,logFC MYH3,PValue NS,−3.064
same,logFC MYH6,PValue NS,−3.72
same,logFC MYT1,PValue NS,−1.297
same,logFC MYT1L,PValue NS,−2.032
same,logFC NAPB,PValue NS,−1.05
same,logFC NCAN,PValue NS,−1.327
same,logFC NCS1,PValue NS,−1.056
same,logFC NDP,PValue NS,−2.196
same,logFC NEFL,PValue NS,−0.8556
same,logFC NKAIN2,PValue NS,−1.212
same,logFC NOL4L,PValue NS,−0.7376
same,logFC NRN1,PValue NS,−0.9586
same,logFC NRXN2,PValue NS,−1.352
same,logFC NTRK1,PValue NS,−1.53
same,logFC NTS,PValue NS,−1.335
same,logFC NXPH1,PValue NS,−2.191
same,logFC OLFM1,PValue NS,−1.154
same,logFC OSBP2,PValue NS,−1.125
same,logFC PCDHA5,PValue NS,−1.076
same,logFC PCDHA7,PValue NS,−1.111
same,logFC PCDHB13,PValue NS,−1.168
same,logFC PCDHB15,PValue NS,−1.085
same,logFC PCDHGA4,PValue NS,−1.156
same,logFC PCDHGA6,PValue NS,−1.871
same,logFC PCSK2,PValue NS,−1.936
same,logFC PEG3,PValue NS,−3.912
same,logFC PEX5L,PValue NS,−1.625
same,logFC PHACTR1,PValue NS,−1.247
same,logFC PIP4K2B,PValue NS,−0.6164
same,logFC PLCL1,PValue NS,−1.271
same,logFC PLPPR4,PValue NS,−2.082
same,logFC PLPPR5,PValue NS,−1.467
same,logFC PLXNA4,PValue NS,−1.432
same,logFC PNMA6A,PValue NS,−1.328
same,logFC PODXL2,PValue NS,−0.8136
same,logFC PRKAR1B,PValue NS,−1.374
same,logFC PTGFR,PValue NS,−2.027
same,logFC PTPRT,PValue NS,−1.789
same,logFC QPCT,PValue NS,−1.04
same,logFC RALYL,PValue NS,−2.285
same,logFC RGN,PValue NS,−1.436
same,logFC RIMS3,PValue NS,−1.119
same,logFC ROBO2,PValue NS,−1.394
same,logFC RPS6KL1,PValue NS,−1.019
same,logFC RTN2,PValue NS,−0.9099
same,logFC RTN4,PValue NS,−0.6753
same,logFC RUNDC3A,PValue NS,−1.678
same,logFC RUSC2,PValue NS,−0.9937
same,logFC SBK1,PValue NS,−0.9487
same,logFC SCAMP5,PValue NS,−0.8113
same,logFC SCRT1,PValue NS,−1.427
same,logFC SEPTIN4,PValue NS,−1.513
same,logFC SGIP1,PValue NS,−1.239
same,logFC SH3GL2,PValue NS,−1.666
same,logFC SHC2,PValue NS,−0.6933
same,logFC SHC4,PValue NS,−2.453
same,logFC SHISA7,PValue NS,−1.011
same,logFC SLC1A4,PValue NS,−1.383
same,logFC SLC4A3,PValue NS,−1.275
same,logFC SLC6A17,PValue NS,−2.434
same,logFC SLC24A3,PValue NS,−1.458
same,logFC SLC30A10,PValue NS,−1.88
same,logFC SLIT1,PValue NS,−1.122
same,logFC SLITRK3,PValue NS,−2.443
same,logFC SMIM18,PValue NS,−1.721
same,logFC SMIM22,PValue NS,−1.921
same,logFC SNAP25,PValue NS,−1.475
same,logFC SNN,PValue NS,−0.6591
same,logFC SOBP,PValue NS,−0.9125
same,logFC SOGA3,PValue NS,−1.2
same,logFC SOX4,PValue NS,−0.6592
same,logFC SPOCK2,PValue NS,−2.032
same,logFC SPRN,PValue NS,−1.245
same,logFC SRL,PValue NS,−1.711
same,logFC STMN3,PValue NS,−1.145
same,logFC SYT3,PValue NS,−1.332
same,logFC SYT4,PValue NS,−1.54
same,logFC SYT5,PValue NS,−1.94
same,logFC SYT11,PValue NS,−0.7686
same,logFC TACR1,PValue NS,−1.666
same,logFC TAFA2,PValue NS,−1.304
same,logFC TBC1D30,PValue NS,−1.541
same,logFC TCEAL6,PValue NS,−2.546
same,logFC TMCC2,PValue NS,−0.92
same,logFC TMEM35A,PValue NS,−1.274
same,logFC TMEM179,PValue NS,−1.494
same,logFC TMEM229B,PValue NS,−1.955
same,logFC TMOD2,PValue NS,−1.477
same,logFC TNR,PValue NS,−2.583
same,logFC TRIM67,PValue NS,−1.894
same,logFC UBE2QL1,PValue NS,−1.575
same,logFC UNC13A,PValue NS,−0.9018
same,logFC VAMP2,PValue NS,−0.7327
same,logFC VSTM2L,PValue NS,−1.008
same,logFC VWC2,PValue NS,−2.201
same,logFC XKR4,PValue NS,−1.301
same,logFC XKR7,PValue NS,−1.252
same,logFC ZNF436,PValue NS,−0.8527
same,logFC ZNF836,PValue NS,−0.9494
